In patent publication US10519111B2, “UV absorbing compounds, compositions comprising same and uses thereof” (CORAL SUNSCREEN PTY LTD, priority 2013, dated 2019):

Columns and labels:
[1] = UV absorption properties (λmax, molar extinction coefficient ε, efficiency E 1%, 1 cm); format: physicochemical
[2] = Critical wavelength (λcrit), approximate in-house measurement; format: physicochemical
From the text: As the precise test for critical wavelength was unable to be replicated exactly by the inventors due to the need for specialist equipment and a specific calibration of the spectrophotometer, these values are only approximate to a degree. […] This represents a highly useful result and so, compounds based around this benzoyl substitution pattern shown, are especially preferred.

[3] = Table 9, C3-trifluoroacetylated N-aryl enamines
[4] = Table 10, bis and mono enamine compounds
[5] = Table 11, compounds from mixed anhydrides

Compound: C=CC(=O)C1=CN(c2ccccc2)CCC1(C)C [drawing 123]
- E (1%, 1 cm) ([1]; Table 8a): 874
- ε ([1]; Table 8a): 21000 M⁻¹ cm⁻¹
- λmax ([1]; Table 8a, N-phenyl compounds): 346 nm
- λcrit ([2]; Table 8a): 373 nm

Compound: CC1(C)CCN(c2ccccc2)C=C1C(=O)c1ccc(Br)cc1 [drawing 124]
- E (1%, 1 cm) ([1]; Table 8a): 629
- ε ([1]; Table 8a): 23300 M⁻¹ cm⁻¹
- λmax ([1]; Table 8a, N-phenyl compounds): 338 nm
- λcrit ([2]; Table 8a): 366 nm

Compound: CCC(=O)C1=CN(c2ccc(OC)cc2)CCC1(C)C [drawing 127]
- E (1%, 1 cm) ([1]; Table 8a): 862
- ε ([1]; Table 8a): 23500 M⁻¹ cm⁻¹
- λmax ([1]; Table 8a, N-phenyl compounds): 328 nm
- λcrit ([2]; Table 8a): 350 nm

Compound: C=CC(=O)C1=CN(c2ccc(OC)cc2)CCC1(C)C [drawing 128]
- E (1%, 1 cm) ([1]; Table 8a): 794
- ε ([1]; Table 8a): 21500 M⁻¹ cm⁻¹
- λmax ([1]; Table 8a, N-phenyl compounds): 350 nm
- λcrit ([2]; Table 8a): 379 nm

Compound: COc1ccc(N2C=C(C(=O)c3ccc(F)cc3)C(C)(C)CC2)cc1 [drawing 129]
- E (1%, 1 cm) ([1]; Table 8a): 571
- ε ([1]; Table 8a): 19350 M⁻¹ cm⁻¹
- λmax ([1]; Table 8a, N-phenyl compounds): 341 nm
- λcrit ([2]; Table 8a): 369 nm

Compound: COc1ccc(N2C=C(C(=O)C3CCCC3=O)C(C)(C)CC2)cc1 (stereo not drawn) [drawing 130]
- E (1%, 1 cm) ([1]; Table 8b): 938
- λmax ([1]; Table 8b, N-phenyl compounds): 332 nm
- ε ([1]; Table 8b, in M-1 cm-1): 30675
- λcrit ([2]; Table 8b): 358 nm

Compound: Cc1ccc(N2C=C(C(=O)CCCCCCCCC(=O)C3=CN(c4ccc(C)cc4)CCC3(C)C)C(C)(C)CC2)cc1 [drawing 131]
- E (1%, 1 cm) ([1]; Table 8b): 928
- λmax ([1]; Table 8b, N-phenyl compounds): 328 nm
- ε ([1]; Table 8b, in M-1 cm-1): 52737
- λcrit ([2]; Table 8b): 349 nm

Compound: COc1ccc(N2C=C(C(=O)COc3ccccc3)C(C)(C)CC2)cc1 [drawing 132]
- E (1%, 1 cm) ([1]; Table 8b): 759
- λmax ([1]; Table 8b, N-phenyl compounds): 339 nm
- ε ([1]; Table 8b, in M-1 cm-1): 26633
- λcrit ([2]; Table 8b): 362 nm

Compound: COc1ccc(N2C=C(C(=O)Cc3ccccc3)C(C)(C)CC2)cc1 [drawing 133]
- E (1%, 1 cm) ([1]; Table 8b): 1008
- λmax ([1]; Table 8b, N-phenyl compounds): 334 nm
- ε ([1]; Table 8b, in M-1 cm-1): 33786
- λcrit ([2]; Table 8b): 350 nm

Compound: CCCCCCCC(=O)C1=CN(c2ccc(N(C)C)cc2)CCC1(C)C [drawing 134]
- E (1%, 1 cm) ([1]; Table 8b): 785
- λmax ([1]; Table 8b, N-phenyl compounds): 338 nm
- ε ([1]; Table 8b, in M-1 cm-1): 28040
- λcrit ([2]; Table 8b): 371 nm

Compound: CCC(=O)C1=CN(c2ccc(C)cc2)CCC1(C)C [drawing 135]
- E (1%, 1 cm) ([1]; Table 8b): 1347
- λmax ([1]; Table 8b, N-phenyl compounds): 327 nm
- ε ([1]; Table 8b, in M-1 cm-1): 34608
- λcrit ([2]; Table 8b): 348 nm

Compound: CCC(=O)C1=CN(c2ccc(C(C)(C)C)cc2)CCC1(C)C [drawing 136]
- E (1%, 1 cm) ([1]; Table 8b): 1069
- λmax ([1]; Table 8b, N-phenyl compounds): 329 nm
- ε ([1]; Table 8b, in M-1 cm-1): 31955
- λcrit ([2]; Table 8b): 348 nm

Compound: CCC(=O)C1=CN(c2cccc3ccccc23)CCC1(C)C [drawing 137]
- E (1%, 1 cm) ([1]; Table 8b): 793
- λmax ([1]; Table 8b, N-phenyl compounds): 321 nm
- ε ([1]; Table 8b, in M-1 cm-1): 23247
- λcrit ([2]; Table 8b): 346 nm

Compound: CC1(C)CCN(c2ccc(C(C)(C)C)cc2)C=C1C(=O)C(F)(F)F [drawing 139]
- E (1%, 1 cm) ([1]; Table 9): 1260
- λmax [1, 3]: 337 nm
- ε ([1]; Table 9, in M-1 cm-1): 42723
- λcrit ([2]; Table 9): 361 nm

Compound: COc1ccc(N2C=C(C(=O)C(F)(F)F)C(C)(C)CC2)cc1 [drawing 140]
- E (1%, 1 cm) ([1]; Table 9): 774
- λmax [1, 3]: 339 nm
- ε ([1]; Table 9, in M-1 cm-1): 24235
- λcrit ([2]; Table 9): 365 nm

Compound: CN(C)c1ccc(N2C=C(C(=O)C(F)(F)F)C(C)(C)CC2)cc1 [drawing 141]
- E (1%, 1 cm) ([1]; Table 9): 1004
- λmax [1, 3]: 354 nm
- ε ([1]; Table 9, in M-1 cm-1): 32744
- λcrit ([2]; Table 9): 385 nm

Compound: Cc1ccc(N2C=C(C(=O)C(F)(F)F)C(C)(C)CC2)cc1 [drawing 142]
- E (1%, 1 cm) ([1]; Table 9): 1465
- λmax [1, 3]: 337 nm
- ε ([1]; Table 9, in M-1 cm-1): 43513
- λcrit ([2]; Table 9): 361 nm

Compound: CC1(C)CCN(c2cccc3ccccc23)C=C1C(=O)C(F)(F)F [drawing 143]
- E (1%, 1 cm) ([1]; Table 9): 985
- λmax [1, 3]: 325 nm
- ε ([1]; Table 9, in M-1 cm-1): 32790
- λcrit ([2]; Table 9): 348 nm

Compound: Cc1ccc(N2C=CC(C)(C)C(C(=O)C(F)(F)F)=C2)cc1 [drawing 151]
- E (1%, 1 cm) ([1]; Table 10): 505
- λmax [1, 4]: 388 nm
- ε ([1]; Table 10, in M-1 cm-1): 14911
- λcrit ([2]; Table 10): 393 nm

Compound: Cc1cc(N2C=CC(C)(C)C=C2)n(C)n1 [drawing 152]
- E (1%, 1 cm) ([1]; Table 10): 560
- λmax [1, 4]: 253 nm
- ε ([1]; Table 10, in M-1 cm-1): 11371
- λcrit ([2]; Table 10): 350 nm

Compound: Cc1nn(C)c(N2C=CC(C)(C)C=C2)c1C(=O)C(F)(F)F [drawing 153]
- E (1%, 1 cm) ([1]; Table 10): 335
- λmax [1, 4]: 253 nm
- ε ([1]; Table 10, in M-1 cm-1): 10016
- shoulder in the λmax column ([1]; Tables 5, 10, 13B): 315 nm
- λcrit ([2]; Table 10): 363 nm

Compound: CC1(C)CCN(c2ccc(C(C)(C)C)cc2)C=C1C(=O)C(c1ccccc1)c1ccccc1 [drawing 157]
- E (1%, 1 cm) ([1]; Table 11): 407
- λmax [1, 5]: 337 nm
- ε ([1]; Table 11, in M-1 cm-1): 17793
- λcrit ([2]; Table 11): 356 nm

Compound: CC1(C)CCN(c2ccc(C(C)(C)C)cc2)C=C1C(=O)C1c2ccccc2-c2ccccc21 [drawing 158]
- E (1%, 1 cm) ([1]; Table 11): 707
- λmax [1, 5]: 339 nm
- ε ([1]; Table 11, in M-1 cm-1): 30745
- λcrit ([2]; Table 11): 358 nm
